According to patent publication US4027039A (priority 1975, dated 1977):
Where “and” joins values, the source holds several entries; their conditions need not be identical. Identical values can stand only once. Like-named read-outs stand apart in the source and are kept apart here.

Assays:
[1] = tested on: Herpes virus
[2] = tested on: Influenza B Massachusetts virus; experiment: Influenza B Mass. in mice, oral; late read day 5 (Table 39), 7 (Table 40), 11 (Tables 61, 65); control fraction 16/20 (Table 61), else 100%; format: in vivo, mouse
Method: A portion of a commercially available sample of amantadine was recrystallized from isopropanol. The activity of the material against Influenza B Mass. was tested for the sample as obtained, the recrystallized portion, and the mother liquor obtained from recrystallizing the portion.

[3] = tested on: Influenza PR 8 virus; experiment: Influenza PR 8 in mice, oral; schedule by table; late read day 6 (Table 37), 7 (33, 36), 8 (32, 35, 47), 10 (38); control fraction 18/20 (Table 32), 19/20 (Table 35), else 100%; format: in vivo, mouse
[4] = tested on: viral infections; experiment: Antiviral screening in animals, general statements; settings: mouse, in vivo
[5] = tested on: Influenza, Ann Arbor virus; experiment: Influenza Ann Arbor in mice, oral; schedule by table; late read day 5 (Tables 15, 25, 29, 30), 6 (18, 20, 22, 23, 26, 27, 28, 54), 7 (14, 19, 21, 24, 53, 56), 8 (16, 17, 51), 9 (11, 55); format: in vivo, mouse
[6] = tested on: Influenza, Ann Arbor virus; experiment: Influenza Ann Arbor in mice, subcutaneous; late read day 9 (Table 11), 7 (Tables 12, 14), 5 (Table 13); format: in vivo, mouse
[7] = tested on: Vaccinia IHD virus; format: in vivo, mouse
[8] = tested on: Herpes virus; experiment: Herpes virus in chicken eggs, single dose 24 hours pre-infection; format: in vivo, chick embryo

For `NNC(=O)c1ccncc1` [Isoniazid, isoniazid, reference compound], the “No. animals surviving after 6-9 days” value ([1]; total dose .0000005 μg) was 4, the “No. animals surviving when 100% (or given fraction) of controls are dead” value ([1]; total dose .0000005 μg) was 1 and the Survivors ([1]; total dose .0000005 μg) was 1. The “No. animals surviving when 100% (or given fraction) of controls are dead” value ([1]; total dose .005 μg) was 1, the “No. animals surviving after 6-9 days” value ([1]; total dose .05 μg) was 4 and the “No. animals surviving when 100% (or given fraction) of controls are dead” value ([1]; total dose .05 μg) was 1. The Survivors ([1]; total dose .05 μg) was 1, the “No. animals surviving after 5 days (Table 61: 11 days)” value (shortened to “No. animals surviving after 5 days”) ([2]; total dose .000005 μg (5 pg)) was 3 and the “No. animals surviving when 100% (Table 61: 16/20) of controls are dead” value ([2]; total dose .000005 μg (5 pg)) was 0. For the same compound, the Survivors ([2]; total dose .000005 μg (5 pg)) was 0, the “No. animals surviving after 5 days” value ([2]; total dose .00005 μg (50 pg)) was 2 and the “No. animals surviving when 100% (Table 61: 16/20) of controls are dead” value ([2]; total dose .00005 μg (50 pg)) was 1. For the same compound, the Survivors ([2]; total dose .00005 μg (50 pg)) was 0, the “No. animals surviving after 5 days” value ([2]; total dose .0005 μg (500 pg)) was 3 and the “No. animals surviving when 100% (Table 61: 16/20) of controls are dead” value ([2]; total dose .0005 μg (500 pg)) was 2. For the same compound, the Survivors ([2]; total dose .0005 μg (500 pg)) was 0, the “No. animals surviving after 5 days” value ([2]; total dose .005 μg (5 ng)) was 5 and the “No. animals surviving when 100% (Table 61: 16/20) of controls are dead” value ([2]; total dose .005 μg (5 ng)) was 1. For the same compound, the Survivors ([2]; total dose .005 μg (5 ng)) was 0, the “No. animals surviving after 5 days” value ([2]; total dose .05 μg (50 ng)) was 3 and the “No. animals surviving when 100% (Table 61: 16/20) of controls are dead” value ([2]; total dose .05 μg (50 ng)) was 1. For the same compound, the Survivors ([2]; total dose .05 μg (50 ng)) was 0, the “No. animals surviving after 5 days” value ([2]; total dose .5 μg (500 ng)) was 3 and the “No. animals surviving when 100% (Table 61: 16/20) of controls are dead” value ([2]; total dose .5 μg (500 ng)) was 0. The Survivors ([2]; total dose .5 μg (500 ng)) was 0, the “No. animals surviving after 6-10 days” value ([3]; total dose 5 μg) was 5 and the “No. animals surviving after 6-10 days” value ([3]; total dose .0000005 μg) was 1. For the same compound, the “No. animals surviving when 100% (or given fraction) of controls are dead” value ([3]; total dose .0000005 μg) was 0, the Survivors ([3]; total dose .0000005 μg) was 0 and the “No. animals surviving when 100% (or given fraction) of controls are dead” value ([3]; total dose .000005 μg) was 1. The Survivors ([3]; total dose .000005 μg) was 0, the “No. animals surviving after 6-10 days” value ([3]; total dose .00005 μg) was 0 and the “No. animals surviving when 100% (or given fraction) of controls are dead” value ([3]; total dose .00005 μg) was 0. For the same compound, the Survivors ([3]; total dose .00005 μg) was 0, the “No. animals surviving after 6-10 days” value ([3]; total dose .0005 μg) was 0 and the “No. animals surviving when 100% (or given fraction) of controls are dead” value ([3]; total dose .0005 μg) was 0. The Survivors ([3]; total dose .0005 μg) was 0, the “No. animals surviving after 6-10 days” value ([3]; total dose .005 μg) was 1 and the “No. animals surviving when 100% (or given fraction) of controls are dead” value ([3]; total dose .005 μg) was 1. The Survivors ([3]; total dose .005 μg) was 1, the “No. animals surviving when 100% (or given fraction) of controls are dead” value ([3]; total dose .05 μg) was 0 and the Survivors ([3]; total dose .05 μg) was 1. For the same compound, the “No. animals surviving when 100% (or given fraction) of controls are dead” value ([3]; total dose .5 μg) was 1, the Survivors ([3]; total dose .5 μg) was 1 and the activity in words [4] was “active”. For the same compound, the “maximum protective effect, treated animals survived” value [4] was 30%.

`N=C(N)NN` [aminoguanidine, bicarbonate] was tested, and the Survivors ([2]; total dose 40 pg) was 0, the Survivors ([2]; total dose 400 pg) was 2 and the Survivors ([2]; total dose 4 ng) was 0. It also gave a Survivors ([2]; total dose 40 ng) of 1, a Survivors ([2]; total dose 400 ng) of 1 and a Survivors ([2]; total dose 4 μg) of 1. For the same compound, the activity in words [4] was “very pronounced protective effects”.

For `N=C(N)NN` [aminoguanidine], the activity in words ([5]; oral) was “most active”, the treated animals survived ([5]; oral, high dose) was 50% and the “No. animals surviving after 5-7 days” value ([5]; total dose 300 pg) was 6. The Survivors ([5]; total dose 300 pg) was 1, the Survivors ([5]; total dose 3 ng) was 1 and the Survivors ([5]; total dose 30 ng) was 2. For the same compound, the Survivors ([5]; total dose 300 ng) was 4, the “No. animals surviving after 5-7 days” value ([5]; total dose 3 μg) was 8 and the Survivors ([5]; total dose 3 μg) was 3. For the same compound, the “No. animals surviving after 5-7 days” value ([5]; total dose 30 μg) was 8, the survival ([6]; subcutaneous, only at one dose level) was 50% and the “No. animals surviving after 7 days” value ([6]; total dose 3 μg) was 6. The Survivors ([6]; total dose 3 μg) was 2, the Survivors ([6]; total dose 30 μg) was 2 and the “No. animals surviving after 7 days” value ([6]; total dose .0003 μg) was 8. For the same compound, the Survivors ([6]; total dose .0003 μg) was 5, the “No. animals surviving after 7 days” value ([6]; total dose .003 μg) was 8 and the Survivors ([6]; total dose .003 μg) was 0. The Survivors ([6]; total dose .03 μg) was 1 and the Survivors ([6]; total dose .3 μg) was 1.

`NN` [hydrazine] was tested, and the “Statistical Significance of Tail Lesions” value ([7]; 10 ng, day 6) was “< .01”, the “Statistical Significance of Tail Lesions” value ([7]; 10 ng, day 7) was “< .05” and the “Statistical Significance of Tail Lesions” value ([7]; 10 ng, day 11) was “< .01”. For the same compound, the “Statistical Significance of Tail Lesions” value ([7]; 10 ng, day 12) was “< .01”, the “Statistical Significance of Tail Lesions” value ([7]; 10 ng, day 14) was “< .01” and the “Statistical Significance of Tail Lesions” value ([7]; 10 ng, day 17) was “< .01”. For the same compound, the “Statistical Significance of Tail Lesions” value ([7]; 10 ng, day 21) was “< .01”, the “Statistical Significance of Tail Lesions” value ([7]; 1 μg, day 10) was “< .01” and the “Statistical Significance of Tail Lesions” value ([7]; 1 μg, day 11) was “< .01”. For the same compound, the “Statistical Significance of Tail Lesions” value ([7]; 1 μg, day 12) was “< .01”, the “Statistical Significance of Tail Lesions” value ([7]; 1 μg, day 14) was “< .01” and the “Statistical Significance of Tail Lesions” value ([7]; 1 μg, day 17) was “< .01”. For the same compound, the “Statistical Significance of Tail Lesions” value ([7]; 1 μg, day 21) was “< .01”, the “Statistical Significance of Tail Lesions” value ([7]; 10 [μg], day 10) was “< .05” and the “Statistical Significance of Tail Lesions” value ([7]; 10 [μg], day 11) was “< .01”. The “Statistical Significance of Tail Lesions” value ([7]; 10 [μg], day 12) was “< .01”, the “Statistical Significance of Tail Lesions” value ([7]; 10 [μg], day 14) was “< .01” and the “Statistical Significance of Tail Lesions” value ([7]; 10 [μg], day 17) was “< .01”. For the same compound, the “Statistical Significance of Tail Lesions” value ([7]; 10 [μg], day 21) was “< .01”, the “Statistical Significance of Tail Lesions” value ([7]; 100 [ng], day 5) was “< .05” and the “Statistical Significance of Tail Lesions” value ([7]; 100 [ng], day 6) was “< .01”. For the same compound, the “Statistical Significance of Tail Lesions” value ([7]; 100 [ng], day 7) was “< .01”, the “Statistical Significance of Tail Lesions” value ([7]; 100 [ng], day 8) was “< .05” and the “Statistical Significance of Tail Lesions” value ([7]; 100 [ng], day 10) was “< .01”. For the same compound, the “Statistical Significance of Tail Lesions” value ([7]; 100 [ng], day 11) was “< .01”, the “Statistical Significance of Tail Lesions” value ([7]; 100 [ng], day 12) was “< .01” and the “Statistical Significance of Tail Lesions” value ([7]; 100 [ng], day 14) was “< .01”. The “Statistical Significance of Tail Lesions” value ([7]; 100 [ng], day 17) was “< .01”, the “Statistical Significance of Tail Lesions” value ([7]; 100 [ng], day 21) was “< .01” and the activity in words ([5]; oral) was “much less significant activity”. The “No. animals surviving after 6-9 days” value ([1]; total dose .0005 μg) was 6 and 5, the “No. animals surviving after 6-9 days” value ([1]; total dose .005 μg) was 6 and the “No. animals surviving after 6-9 days” value ([1]; total dose .05 μg) was 3 and 5. For the same compound, the “No. animals surviving when 100% (or given fraction) of controls are dead” value ([1]; total dose .05 μg) was 1, the “No. animals surviving when 100% (or given fraction) of controls are dead” value ([1]; total dose .5 μg) was 1 and the “Deaths on day 1” value ([8]; 2 μg) was 3. For the same compound, the “Deaths on day 2” value ([8]; 2 μg) was 4, the “Deaths on day 3” value ([8]; 2 μg) was 1 and the “Deaths on day 4” value ([8]; 2 μg) was 1. The “No. dying 5-22 day” value ([8]; 2 μg) was 0, the No. hatched ([8]; 2 μg) was 1 and the “No. living longer than controls” value ([8]; 2 μg) was 1. The “Total deaths, 4th day” value ([8]; 2 μg) was 9, the “Deaths on day 1” value ([8]; 20 μg) was 3 and the “Deaths on day 3” value ([8]; 20 μg) was 4. The “No. dying 5-22 day” value ([8]; 20 μg) was 0, the No. hatched ([8]; 20 μg) was 1 and the “No. living longer than controls” value ([8]; 20 μg) was 1. For the same compound, the “Total deaths, 4th day” value ([8]; 20 μg) was 11, the “Deaths on day 3” value ([8]; .00005 μg) was 5 and the “No. dying 5-22 day” value ([8]; .00005 μg) was 0. The “No. living longer than controls” value ([8]; .00005 μg) was 1, the “Total deaths, 4th day” value ([8]; .00005 μg) was 9 and the “Deaths on day 2” value ([8]; .0005 μg) was 6. The “Deaths on day 3” value ([8]; .0005 μg) was 4, the “No. dying 5-22 day” value ([8]; .0005 μg) was 0 and the “No. living longer than controls” value ([8]; .0005 μg) was 0. The “Total deaths, 4th day” value ([8]; .0005 μg) was 12, the “Deaths on day 2” value ([8]; .005 μg) was 7 and the “Deaths on day 3” value ([8]; .005 μg) was 4. The “No. dying 5-22 day” value ([8]; .005 μg) was 0, the “No. living longer than controls” value ([8]; .005 μg) was 0 and the “Total deaths, 4th day” value ([8]; .005 μg) was 11. The “Deaths on day 2” value ([8]; .05 μg) was 5, the “Deaths on day 3” value ([8]; .05 μg) was 3 and the “No. dying 5-22 day” value ([8]; .05 μg) was 0. The “No. living longer than controls” value ([8]; .05 μg) was 0, the “Total deaths, 4th day” value ([8]; .05 μg) was 10 and the “Deaths on day 3” value ([8]; .5 μg) was 5. The “Deaths on day 4” value ([8]; .5 μg) was 1, the “No. dying 5-22 day” value ([8]; .5 μg) was 0 and the “No. living longer than controls” value ([8]; .5 μg) was 0. The “Total deaths, 4th day” value ([8]; .5 μg) was 10 and the “Total no. living longer than controls” value ([8]; all doses) was 3.

`O=C(C=NO)c1ccccc1` [phenylglyoxaloxime] was tested, and the activity in words [4] was “active”.

N-hydroxyphthalamide was tested, and the activity in words [4] was “active”.
